Measured values as given in patent publication US10023539B2, “Aryl-cyanoguanidine compounds” (Bayer Pharma Aktiengesellschaft, priority 2014, dated 2018).

What was measured:
SMYD2 [1] = molecular target: T1, SMYD2 (Homo sapiens (Human), UniProt Q9NRG4); assay: Scintillation Proximity Assay (SPA) for detection of SMYD2 enzymatic inhibition; format: biochemical; conditions: read-out: IC50 [mol/l] (SPA Assay)
Procedure: 1.1 Scintillation Proximity Assay (SPA) for Detection of SMYD2 Enzymatic Inhibition
The SMYD2 full length enzyme was produced in-house by expression (with an N-terminal 6×His tag) in E. coli and purification by affinity chromatography on a Ni-NTA Sepharose column followed by a size exclusion chromatography step on a Superdex 200 16/60 column (GE Healthcare).
To this end, 100-fold concentrated compound solutions (in DMSO) were previously prepared by serial dilution (1:3.4) of 2 mM stocks in a clear low volume 384-well source microtiter plate (Greiner Bio-One), from which 50 nl of compound solutions were transferred into a white low volume test microtiter plate from the same supplier. […] The samples were then incubated for 15 min at 22° C. to allow pre-equilibration of the putative enzyme-inhibitor complexes before the start of the methylation reaction, which was initiated by the addition of 2.5 μl 2-fold concentrated solution (in assay buffer) of titrated S-Adenosyl-L-Methionine (3H-SAM, Perkin Elmer, final concentration: 60 nM) and p53 Peptide substrate (final concentration: 1.0 μM). The resulting mixture (5 μl final volume) was shortly centrifuged (2 min., 1500 rpm) and incubated at 22° C. during 30 min. Thereupon the reaction was stopped by adding 3 μl of Streptavidin PS SPA imaging beads (Perkin Elmer, final concentration of 3.12 μg/μl) and “cold” SAM (AK Scientific, 25 μM final concentration) for non-specific binding reduction. Plates containing the stopped reaction were sealed with transparent adhesive foil (Perkin Elmer), centrifuged (2 min., 1500 rpm), and further incubated for—at least—1 h at RT (or overnight at 4° C.) in order to allow the SPA signals to develop. […] IC50 values were calculated by fitting the normalized inhibition data to a 4-parameter logistic equation using the “Screener” analysis software from Genedata.

SMYD2 [2] = molecular target: T1, SMYD2; assay: In Cell Western (ICW) cell-based assay for detection of SMYD2 methylation activity; conditions: SMYD2 overexpressing KYSE-150 cells, 72 h treatment, p53K370me1 signal; read-out: IC50 [mol/l] (ICW assay)
Excerpt: For the detection of SMYD2 cellular methylation activity an In Cell Western (ICW) assay was established. This assay allows rapid processing of multiple samples for SMYD2 methylation derived immunofluorescence signals, with normalization to cell number via the use of the nucleic acid dye DRAQ5. […] To detect SMYD2-mediated methylation signals in cells, a customized antibody directed against mono-methylated lysine 370 on protein p53 (p53K370me1) was used.
For conducting the ICW assay 5000 SMYD2 overexpressing KYSE-150 cells/well were seeded in 96-well plates (SIGMA) and cultivated for 24 h. As a control for maximal inhibition of ectopic methylation activity, non-transfected KYSE-150 cells were used. Cells were grown in 49% RPMI 1640 with 49% Ham's F12 media supplemented with 2% heat inactivated fetal calf serum (FCS). […] After 5 washes with PBS, the fluorescence in each well was measured on an Odyssey (LI-COR) scanner at 800 nm (p53K370me1 signal; 764 nm excitation) and 700 nm (DRAQ5 signal; 683 nm excitation). Fluorescence intensity was quantified and normalized to background and DRAQ5 signals. IC50 values were calculated by fitting the normalized inhibition data to a 4-parameter logistic equation (Minimum, Maximum, IC50, Hill; Y=Max+(Min−Max)/(1+(X/IC50)Hill)) for each tested compound. […] Ci (maximal inhibition) was defined as the signal measured for non SMYD2 overexpressing KYSE150 cells.

[3] = methylation of biotinylated p53 Peptide, 3H-SAM, full length SMYD2

T1 sequence (Q9NRG4 whole entry): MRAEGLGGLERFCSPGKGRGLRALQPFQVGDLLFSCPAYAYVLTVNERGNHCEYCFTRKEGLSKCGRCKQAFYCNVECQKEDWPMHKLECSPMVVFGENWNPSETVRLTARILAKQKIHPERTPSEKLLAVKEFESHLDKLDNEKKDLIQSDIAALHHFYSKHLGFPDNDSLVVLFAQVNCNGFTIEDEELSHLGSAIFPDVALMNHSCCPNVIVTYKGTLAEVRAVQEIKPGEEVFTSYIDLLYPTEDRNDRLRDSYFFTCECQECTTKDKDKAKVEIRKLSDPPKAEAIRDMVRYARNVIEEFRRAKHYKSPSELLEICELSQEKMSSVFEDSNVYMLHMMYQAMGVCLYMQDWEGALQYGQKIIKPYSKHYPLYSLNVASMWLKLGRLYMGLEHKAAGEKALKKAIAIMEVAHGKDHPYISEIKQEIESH

Compound	IC50 (SMYD2 [1]; [3]) [nM]	IC50 (SMYD2 [2]) [nM]	IC50 (SMYD2 [1]; comparison example versus WO 2006/072350) [nM]
CCN(C(=O)CO)C1CN(/C(=N\C#N)Nc2ccc(Cl)c(OC(F)F)c2)N=C1c1ccc(Cl)c(Cl)c1 (racemic) [Example 11, Rac-N-[1-{N-[4-chloro-3-(difluoromethoxy)phenyl]-N′-cyanocarbamimidoyl}-3-(3,4-dichlorophenyl)-4,5-dihydro-1H-pyrazol-4-yl]-N-ethyl-2-hydroxyacetamide]	144	376	
CCN(C(=O)[C@H](N)C(C)C)C1CN(/C(=N\C#N)Nc2cccc(OC(F)F)c2)N=C1c1ccc(Cl)c(Cl)c1 (stereo partly drawn) [Example 41, N-[1-{N′-Cyano-N-[3-(difluoromethoxy)phenyl]carbamimidoyl}-3-(3,4-dichlorophenyl)-4,5-dihydro-1H-pyrazol-4-yl]-N-ethyl-D-valinamide]	73.5		
CCN(C(=O)CO)C1CN(/C(=N\C#N)Nc2cccc(OC(F)F)c2)N=C1c1ccc(Cl)cc1 (stereo not drawn) [WO 2006/072350 Example 67 more active isomer, reference compound]			548
